Laboratory results from PubChem BioAssay AID330 (DTP/NCI, 2004).
Several values for one entry are separate records, joined by “and”; a condition that tells them apart may be missing. Identical values can stand only once. Toxic doses and inconclusive results are not listed. The calls were made as follows: active = survival T/C of 150% or more; inactive = T/C below 125% in these data.

Test system: P388 leukemia ip, CD2F1 mice, survival T/C
Assay: NCI In Vivo Anticancer Drug Screen. Data for tumor model P388 Leukemia (intraperitoneal) in CD2F1 (CDF1) mice
Details: endpoint: median survival time, higher = longer survival
Method in brief: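 Mice carrying the transplanted tumor received test compound or vehicle. Survival was recorded in each group, and the value is the treated-group measurement divided by that of the vehicle-treated control group.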

[1] = dose: 50.0 mg/kg/injection, schedule: Q01DX005 (ip), vehicle: saline with Tween-80
[2] = dose: 100.0 mg/kg/injection, schedule: Q01DX005 (ip), vehicle: saline with Tween-80
[3] = dose: 200.0 mg/kg/injection, schedule: Q01DX005 (ip), vehicle: saline with Tween-80
[4] = dose: 50.0 mg/kg/injection, schedule: Q01DX005 (ip), vehicle: Klucel (hydroxypropylcellulose) (HPC)
[5] = dose: 100.0 mg/kg/injection, schedule: Q01DX005 (ip), vehicle: Klucel (hydroxypropylcellulose) (HPC)
[6] = dose: 200.0 mg/kg/injection, schedule: Q01DX005 (ip), vehicle: Klucel (hydroxypropylcellulose) (HPC)
[7] = dose: 25.0 mg/kg/injection, schedule: Q01DX005 (ip), vehicle: Klucel (hydroxypropylcellulose) (HPC)
[8] = dose: 60.0 mg/kg/injection, schedule: Q01DX005 (ip), vehicle: saline with Tween-80
[9] = dose: 120.0 mg/kg/injection, schedule: Q01DX005 (ip), vehicle: saline with Tween-80
[10] = dose: 240.0 mg/kg/injection, schedule: Q01DX005 (ip), vehicle: saline with Tween-80
[11] = dose: 50.0 mg/kg/injection, schedule: Q01DX009 (ip), vehicle: saline with Tween-80
[12] = dose: 100.0 mg/kg/injection, schedule: Q01DX009 (ip), vehicle: saline with Tween-80
[13] = dose: 50.0 mg/kg/injection, schedule: Q01DX009 (ip), vehicle: saline
[14] = dose: 100.0 mg/kg/injection, schedule: Q01DX009 (ip), vehicle: saline
[15] = dose: 200.0 mg/kg/injection, schedule: Q01DX009 (ip), vehicle: saline
[16] = dose: 100.0 mg/kg/injection, schedule: Q04DX003 (ip), vehicle: saline
[17] = dose: 50.0 mg/kg/injection, schedule: Q01DX009 (ip), vehicle: Klucel (hydroxypropylcellulose) (HPC)
[18] = dose: 100.0 mg/kg/injection, schedule: Q01DX009 (ip), vehicle: Klucel (hydroxypropylcellulose) (HPC)
[19] = dose: 200.0 mg/kg/injection, schedule: Q01DX009 (ip), vehicle: Klucel (hydroxypropylcellulose) (HPC)
[20] = dose: 25.0 mg/kg/injection, schedule: Q01DX009 (ip), vehicle: saline with Tween-80
[21] = dose: 200.0 mg/kg/injection, schedule: Q01DX009 (ip), vehicle: saline with Tween-80

Measured: T/C

COc1c(Br)cnc2ccccc12
inactive: dose: 12.5 mg/kg/injection, schedule: Q01DX009 (ip), vehicle: distilled water + Tween-80 96 % of control | dose: 25.0 mg/kg/injection, schedule: Q01DX009 (ip), vehicle: distilled water + Tween-80 96 % of control | dose: 50.0 mg/kg/injection, schedule: Q01DX009 (ip), vehicle: distilled water + Tween-80 102 % of control | dose: 100.0 mg/kg/injection, schedule: Q01DX009 (ip), vehicle: distilled water + Tween-80 102 % of control | dose: 200.0 mg/kg/injection, schedule: Q01DX009 (ip), vehicle: distilled water + Tween-80 93 % of control

OCC1OC(n2cnc3c(I)ncnc32)C(O)C1O (stereo not given)
inactive: [1] 100 % of control | [2] 103 % of control | [3] 101 % of control

O=C(O)c1ccc2ncc(-c3ccccc3)nc2c1
inactive: [4] 100 % of control | [5] 100 % of control | [6] 95 % of control

O=[n+]1ccn([O-])c2ccccc21.[O-][Cl+3]([O-])([O-])O.[Zn+2]
inactive: dose: 100.0 mg/kg/injection, schedule: Q04DX003 (ip), vehicle: saline with Tween-80 98 % of control

C1=NCc2ccsc2-n2cccc21
inactive: [7] 100 % of control | [4] 105 % of control

[N-]=[N+]=Nc1ccnc2cc(C(F)(F)F)ccc12
inactive: [8] 103 % of control | [9] 100 % of control | [10] 96 % of control

O=P(c1ccccc1)(c1ccccc1)c1ccccc1.O=P(c1ccccc1)(c1ccccc1)c1ccccc1.O=P(c1ccccc1)(c1ccccc1)c1ccccc1.O=P(c1ccccc1)(c1ccccc1)c1ccccc1.[Co+2].[O-][Cl+3]([O-])([O-])O
inactive: [11] 96 % of control | [12] 99 % of control

CC(=O)Oc1cc(C)c(OC(C)=O)c(OC(C)=O)c1C
inactive: dose: 100.0 mg/kg/injection, schedule: Q04DX002 (ip), vehicle: Klucel (hydroxypropylcellulose) (HPC) 102 % of control | dose: 200.0 mg/kg/injection, schedule: Q04DX002 (ip), vehicle: Klucel (hydroxypropylcellulose) (HPC) 90 % of control

CC(=O)Nc1ccc(N=Nc2c(O)c(S(=O)(=O)O)cc3cc(S(=O)(=O)O)ccc23)cc1
inactive: [13] 102 % of control | [14] 97 % of control | [15] 103 % of control

COc1c2ccoc2nc2c(O)c3c(c(CC=C(C)C)c12)OCO3
inactive: dose: 1.5 mg/kg/injection, schedule: Q01DX005 (ip), vehicle: Klucel (hydroxypropylcellulose) (HPC) 102 % of control | dose: 3.0 mg/kg/injection, schedule: Q01DX005 (ip), vehicle: Klucel (hydroxypropylcellulose) (HPC) 104 % of control | dose: 6.0 mg/kg/injection, schedule: Q01DX005 (ip), vehicle: Klucel (hydroxypropylcellulose) (HPC) 103 % of control | dose: 11.88 mg/kg/injection, schedule: Q01DX005 (ip), vehicle: Klucel (hydroxypropylcellulose) (HPC) 86 % of control | dose: 12.0 mg/kg/injection, schedule: Q01DX005 (ip), vehicle: Klucel (hydroxypropylcellulose) (HPC) 96 % of control | dose: 47.5 mg/kg/injection, schedule: Q01DX005 (ip), vehicle: Klucel (hydroxypropylcellulose) (HPC) 86 % of control

Cn1ccc(C#N)c(C#N)c1=O
inactive: [7] 97 % of control | [4] 99 % of control | [5] 106 % of control | [6] 97 % of control

[B-][N+]1(C)CC[N+]([B-])(C)CC1 (stereo not given)
inactive: dose: 5.0 mg/kg/injection, schedule: Q01DX009 (ip), vehicle: saline with Tween-80 90 % of control | dose: 10.0 mg/kg/injection, schedule: Q01DX009 (ip), vehicle: saline with Tween-80 95 % of control | dose: 20.0 mg/kg/injection, schedule: Q01DX009 (ip), vehicle: saline with Tween-80 90 % of control

COCCOCCOCCOCCOCCOCCOCCOC(=O)Nc1ccc(C)c(NC(=O)OCCOCCOCCOCCOCCOCCOCCOC)c1
inactive: [14] 109 % of control | [15] 109 % of control | dose: 400.0 mg/kg/injection, schedule: Q01DX009 (ip), vehicle: saline 95 % of control

O=C(Nc1ccc(C2=NCCN2)cc1)c1cc(C(=O)Nc2ccc(C3=NCCN3)cc2)cc([N+](=O)[O-])c1
inactive: dose: 167.0 mg/kg/injection, schedule: Q01DX010 (ip), vehicle: saline 104 % of control | dose: 250.0 mg/kg/injection, schedule: Q01DX010 (ip), vehicle: saline 100 % of control | dose: 375.0 mg/kg/injection, schedule: Q01DX010 (ip), vehicle: saline 100 % of control | dose: 512.0 mg/kg/injection, schedule: Q01DX010 (ip), vehicle: saline 95 % of control

Cc1cccn2cnnc12
inactive: [13] 119 % of control | [14] 119 % of control | [15] 117 % of control

CCC(NCC(C)C)NCC(C)C
inactive: dose: 25.0 mg/kg/injection, schedule: Q04DX003 (ip), vehicle: saline 100 % of control | dose: 50.0 mg/kg/injection, schedule: Q04DX003 (ip), vehicle: saline 109 % of control | [16] 95 % of control

CCc1c(COC(=O)NC)c(COC(=O)NC)cc2c1[nH]c1ccccc12
inactive: [1] 88 % of control | [2] 88 % of control | [3] 89 % of control

O=C(SC(O)c1ccc(Cl)cc1)c1ccccc1 (stereo not given)
inactive: [17] 99 % of control | [18] 106 % of control | [19] 105 % of control

C/C(=C\COc1cc(O)c2c(c1)C(=O)c1cc(C)cc(O)c1C2=O)CCC1OC1(C)C (stereo not given)
inactive: dose: 2.5 mg/kg/injection, schedule: Q01DX005 (ip), vehicle: Klucel (hydroxypropylcellulose) (HPC) 98 % of control | dose: 5.0 mg/kg/injection, schedule: Q01DX005 (ip), vehicle: Klucel (hydroxypropylcellulose) (HPC) 93 % of control | dose: 10.0 mg/kg/injection, schedule: Q01DX005 (ip), vehicle: Klucel (hydroxypropylcellulose) (HPC) 90 % of control | dose: 20.0 mg/kg/injection, schedule: Q01DX005 (ip), vehicle: Klucel (hydroxypropylcellulose) (HPC) 88 % of control

C1=Nc2ccccc2OCCOc2ccccc2N=Cc2ccccc2NCCNc2ccccc21
inactive: [16] 97 % of control | dose: 200.0 mg/kg/injection, schedule: Q04DX003 (ip), vehicle: saline 100 % of control

COc1ccc(C2CC(c3cc(C)cc(Br)c3O)=NO2)cc1 (stereo not given)
inactive: dose: 100.0 mg/kg/injection, schedule: Q04DX002 (ip), vehicle: saline with Tween-80 93 % of control | dose: 200.0 mg/kg/injection, schedule: Q04DX002 (ip), vehicle: saline with Tween-80 88 % of control | dose: 400.0 mg/kg/injection, schedule: Q04DX002 (ip), vehicle: saline with Tween-80 92 % of control

O=C(Nc1ccccc1Cl)Oc1ccc(Cl)cc1Cl
inactive: [17] 101 % of control | [18] 110 % of control | [19] 106 % of control

O=S(=O)(Cl)C(F)(F)C(F)(F)C(F)(F)C(F)(F)C(F)(F)C(F)(F)F
inactive: dose: 12.5 mg/kg/injection, schedule: Q01DX009 (ip), vehicle: saline with Tween-80 100 % of control | [20] 104 % of control | [11] 100 % of control and 93 % of control | [12] 112 % of control

NNC(=O)C1C2c3ccccc3C(c3ccccc32)C1C(=O)O (stereo not given)
inactive: [8] 99 % of control | [9] 101 % of control | [10] 103 % of control

COc1cccc2c1C(=O)c1c(O)c3c(c(O)c1C2=O)CC(O)(C(=O)CO)CC3OC1CC2C(OC3COCC(C#N)N32)C(C)O1 (stereo not given)
inactive: dose: 0.5 mg/kg/injection, schedule: Q04DX003 (ip), vehicle: saline with Tween-80 102 % of control and 120 % of control | dose: 1.0 mg/kg/injection, schedule: Q04DX003 (ip), vehicle: saline with Tween-80 116 % of control | dose: 4.0 mg/kg/injection, schedule: Q04DX003 (ip), vehicle: saline with Tween-80 113 % of control

COC1/C=C/OC2(C)Oc3c(C)c(O)c4c(O)c(c(C=NN5C(C)CN(Cc6ccc(Cl)cc6)CC5C)c(O)c4c3C2=O)NC(=O)/C(C)=C/C=C/C(C)C(O)C(C)C(O)C(C)C(OC(C)=O)C1C (stereo not given)
inactive: [11] 98 % of control | [12] 95 % of control | [21] 95 % of control

C[n+]1ccc(/C=C/c2ccccc2)cc1
inactive: [20] 95 % of control | [11] 90 % of control | [12] 95 % of control | [21] 97 % of control
